Experiments:
NDM-1 Escherichia coli [1] = assay: Nitrogen utilisation assay; type: cell-based; conditions: M9 minimal medium with glucose, 0.1% (w/v) nitrogen source
Method: (§1) New Delhi Metallo-β-lactamase 1 (NDM-1) Escherichia coli, NDM-1 Klebsiella pneumoniae, and NDM-1 Enterobacter cloacae were isolated from patients with intestinal CRE colonisation from the Imperial College Healthcare NHS Trust via rectal swab (REC ref. 19/LO/0112). The species were assigned by matrix assisted laser desorption ionization-time of flight (MALDI-TOF) mass spectrometry and later confirmed with 16S rRNA gene sequencing. CRE status was determined using X-pert Carba-R PCR detection (Cepheid, Sunnyvale, CA, USA), (Otter, J. A. et al. Detecting carbapenemase-producing Enterobacterales (CPE): an evaluation of an enhanced CPE infection control and screening programme in acute care. J Antimicrob Chemother 75, 2670-2676 (2020)).
(§2) Growth of CRE isolates on sole carbon or nitrogen sources was tested by inoculating each CRE isolate into a minimal medium supplemented with the nutrient of interest. First, CRE isolates were passaged from frozen glycerol stocks on Reasoner's 2A agar (R2A) plates. Cells were then suspended in M9 minimal media to a turbidity of 42% using a Turbidimeter (Biolog Inc.), then diluted a further 1 in 6 to inoculate the carbon or nitrogen utilisation assays. M9 minimal media contained the following (at final concentrations): 22 mM KH2PO4, 42 mM Na2HPO4, 9 mM NaCl, 0.49 mM MgSO4·7H2O, 0.09 mM CaCl2), 0.011 mM FeSO4·7H2O. For the carbon assays the M9 minimal medium was also supplemented with 0.1% (w/v) NH4Cl (as the nitrogen source) and the carbon sources were individually tested at 0.5% (w/v) concentration. For the nitrogen assays the M9 minimal medium was also supplemented with 0.5% (w/v) glucose (as the carbon source) and the nitrogen sources were individually tested at 0.1% (w/v) concentration. Cultures were incubated anaerobically and aerobically in a plate reader and OD600 readings were collected every 15 minutes for 24 hours.
(§3) Growth curves were analysed in Python (v3.6.5) using the AMiGA software (Midani, F. S., Collins, J. & Britton, R. A. AMiGA: Software for Automated Analysis of Microbial Growth Assays. mSystems 6, e0050821 (2021)). Growth of each isolate was measured with 6 wells from 2-3 independent experiments. Growth curves were normalised to the no substrate control using the subtraction method. AMiGA performed Gaussian Process regression to test differential growth between the substrate and the no substrate control. The functional difference in the OD (and its credible interval) was also computed between the substrate and the no substrate control.

[2] = tested on: NDM-1 Enterobacter cloacae; assay: Nitrogen utilisation assay; type: cell-based; conditions: M9 minimal medium with glucose, 0.1% (w/v) nitrogen source
Method: as §1, §2, §3

[3] = tested on: NDM-1 Klebsiella pneumoniae; assay: Nitrogen utilisation assay; type: cell-based; conditions: M9 minimal medium with glucose, 0.1% (w/v) nitrogen source
Method: as §1, §2, §3

[4] = tested on: vancomycin-resistant E. faecalis; assay: VRE nutrient utilization protocol: nitrogen sources, leave-one-out; type: cell-based, Enterococcus faecalis; conditions: aerobic; leave-one-out from nitrogen source mixture in minimal medium
Method: (§4) VRE minimal media consists of potassium phosphate monobasic (4 g/L), potassium phosphate dibasic (14 g/L), sodium citrate (1 g/L), magnesium sulphate (0.2 g/L), ammonium sulphate (2 g/L), adenosine (0.04 g/L), thymine (0.04 g/L), Kao and Michayluk vitamin solution [Sigma, K3129, 50× Stock](5×), glucose (1 g/L) and amino acid solution [Sigma, R7131, RPMI-1640, 50×](25×). If the study was performed under anaerobic conditions, fumarate (5.2 g/L) was added to increase growth of VRE strains. Carbon-free minimal media was prepared by leaving out glucose while nitrogen-free minimal media was prepared without the amino acid solution. Media was filter sterilized with a 0.22 micron filter and used immediately aerobically or degassed overnight if used anaerobically.
(§5) VRE strains were grown on R2A overnight before the cells were suspended in 0.9% saline to an OD of 0.38 (λ=595 nm). A 10% dilution of the cell suspension was prepared using VRE minimal media to achieve a final well OD of […] (λ=595 nm) greater than the sterile media OD. Both carbon and nitrogen source utilization were evaluated by adding the inoculated media and a filter-sterilised nutrient source solution into a well in a 1:1 ration to a final volume of 100 μL in aerobic tests and 200 μL in anaerobic tests. Carbon sources were tested individually and compared to a carbon-free control. To test nitrogen source utilization, a nitrogen source solution was prepared containing L-alanine (2 g/L), L-arginine (2.5 g/L, L-asparagine (0.71 g/L), L-aspartate (0.25 g/L), L-cysteine (0.625 g/L), L-glutamate (0.25 g/L), L-Glycine (0.125 g/L), L-histidine (0.1875 g/L), L-isoleucine (0.625 g/L), L-leucine (0.625 g/L), L-lysine HCl (0.5 g/L), L-methionine (0.1875 g/L), L-phenylalanine (0.1875 g/L), L-proline (0.25 g/L), L-serine (0.375 g/L), L-threonine (0.25 g/L), L-tryptophan (0.0625 g/L), L-tyrosine (0.29 g/L), L-valine (0.25 g/L), N-acetylglucosamine (2 g/L), and uracil (2.5 g/L). To test the strains' ability to utilize individual nitrogen sources, separate solutions were prepared eliminating one nitrogen source each. The change in growth compared to the complete nitrogen source solution control was used to determine nitrogen utilization. All carbon and nitrogen sources were tested in a technical triplicate for each biological replicate. Aerobic plates were incubated with a plate seal while anaerobic plates were not. The aerobic plate reader was set to read the plate (λ=595 nm, 37° C., 22 flashes per well, orbital shaking of 100 rpm for 15 s prior to each read) every 15 minutes for 24 hours. The anaerobic plate reader read the plate (λ=595 nm, 37° C., stationary) every 15 minutes for 24 hours.

NDM-1 Escherichia coli [5] = assay: Nutrient preference assay (nutrient mixture); type: cell-based; conditions: M9 with […] of each nutrient, up to 24 hours
Method: as §1
(§6) CRE isolates were passaged once from frozen glycerol stocks on R2A plates. Cells were suspended in M9 minimal media to a turbidity of 42% using a Turbidimeter (Biolog Inc.), then diluted 1 in 6 to inoculate the nutrient preference assays. M9 minimal media was supplemented with 0.015% of each of the following: L-arabinose, D-fructose, L-fucose, D-galactose, D-glucose, D-mannose, D-ribose, D-xylose, N-acetylglucosamine, D-maltose, sucrose, D-trehalose, L-alanine, L-arginine, L-aspartate, L-glutamate, L-glycine, L-isoleucine, L-leucine, L-lysine, L-methionine, L-phenylalanine, L-proline, L-threonine, L-tryptophan, L-tyrosine, L-valine, uracil, and succinate. Cultures were incubated anaerobically and aerobically in a plate reader and OD600 readings were collected every 15 minutes for 24 hours. Cultures were also incubated anaerobically and aerobically for 24 h and samples were collected at 0, 4, 8, and 24 hours post-inoculation for 1H-NMR spectroscopy. Changes in nutrients and metabolites by CRE isolates was compared to the sterile media control over time using a two-way mixed ANOVA followed by pairwise comparisons with Bonferroni correction. […]

[6] = tested on: NDM-1 Enterobacter cloacae; assay: Nutrient preference assay (nutrient mixture); type: cell-based; conditions: M9 with […] of each nutrient, up to 24 hours
Method: as §1, §6

[7] = tested on: NDM-1 Klebsiella pneumoniae; assay: Nutrient preference assay (nutrient mixture); type: cell-based; conditions: M9 with […] of each nutrient, up to 24 hours
Method: as §1, §6

[8] = tested on: vancomycin-resistant E. faecium; assay: VRE nutrient utilization protocol: nitrogen sources, leave-one-out; type: cell-based, Enterococcus faecium; conditions: aerobic; leave-one-out from nitrogen source mixture in minimal medium
Method: as §4, §5

[9] = tested on: NDM-1 Enterobacter cloacae; assay: Carbon utilisation assay; type: cell-based; conditions: M9 minimal medium, 0.5% (w/v) carbon source
Method: as §1, §2, §3

[10] = tested on: NDM-1 Klebsiella pneumoniae; assay: Carbon utilisation assay; type: cell-based; conditions: M9 minimal medium, 0.5% (w/v) carbon source
Method: as §1, §2, §3

NDM-1 Escherichia coli [11] = assay: Carbon utilisation assay; type: cell-based; conditions: M9 minimal medium, 0.5% (w/v) carbon source
Method: as §1, §2, §3

SMILES	Use as sole nitrogen source to support E. coli growth (NDM-1 Escherichia coli [1]; aerobic)	Use as sole nitrogen source to support E. cloacae growth ([2]; aerobic)	Use as sole nitrogen source to support K. pneumoniae growth ([3]; aerobic)	Use as nitrogen source to support E. faecalis growth [4]	Utilisation of nutrient by E. coli from nutrient mixture (1H-NMR) (NDM-1 Escherichia coli [5]; aerobic)	Utilisation of nutrient by E. coli from nutrient mixture (1H-NMR) (NDM-1 Escherichia coli [5]; anaerobic)	Utilisation of nutrient by E. cloacae from nutrient mixture (1H-NMR) ([6]; aerobic)	Utilisation of nutrient by E. cloacae from nutrient mixture (1H-NMR) ([6]; anaerobic)	Utilisation of nutrient by K. pneumoniae from nutrient mixture (1H-NMR) ([7]; aerobic)	Utilisation of nutrient by K. pneumoniae from nutrient mixture (1H-NMR) ([7]; anaerobic)	Use as nitrogen source to support E. faecium growth [8]	Use as sole carbon source to support E. cloacae growth ([9]; aerobic)	Use as sole carbon source to support K. pneumoniae growth ([10]; aerobic)	Use as sole nitrogen source to support E. coli growth (NDM-1 Escherichia coli [1]; anaerobic)	Use as sole nitrogen source to support E. cloacae growth ([2]; anaerobic)	Use as sole nitrogen source to support K. pneumoniae growth ([3]; anaerobic)	Use as sole carbon source to support E. coli growth (NDM-1 Escherichia coli [11]; anaerobic)	Use as sole carbon source to support E. cloacae growth ([9]; anaerobic)	Use as sole carbon source to support K. pneumoniae growth ([10]; anaerobic)	Use as sole carbon source to support E. coli growth (NDM-1 Escherichia coli [11]; aerobic)
NCCCC[C@H](N)C(=O)O [lysine, L-lysine]	able to grow	able to grow	able to grow	could use	moderate utilisation	high utilisation	produced low levels	produced low levels	high utilisation	high utilisation	could use									
N[C@@H](CCC(=O)O)C(=O)O [glutamate, L-glutamate]	able to grow	able to grow	able to grow	could use	moderate utilisation		moderate utilisation		moderate utilisation		could use	able to grow	able to grow							
N=C(N)NCCC[C@H](N)C(=O)O [arginine, L-arginine]			could use	could use			high utilisation	high utilisation			could use			could use	could use	could use				
O=C[C@H](O)[C@@H](O)[C@H](O)CO [xylose, D-xylose]																	could use	could use	could use	
NCC(=O)O [glycine, L-glycine]	able to grow	able to grow	able to grow	could use							could use									
C[C@H](N)C(=O)O [alanine, L-alanine]	able to grow	able to grow	able to grow			not utilised		not utilised		not utilised		able to grow	able to grow							able to grow
